Common to all, as to format: biochemical
For one assay, the target named is T1, JIK (Homo sapiens, UniProt Q9H2K8).
T1 construct: 6 nM JIK (baculovirus expressed human KIAA 1361 kinase domain2-318); made in house
T1 sequence (Q9H2K8 2-318): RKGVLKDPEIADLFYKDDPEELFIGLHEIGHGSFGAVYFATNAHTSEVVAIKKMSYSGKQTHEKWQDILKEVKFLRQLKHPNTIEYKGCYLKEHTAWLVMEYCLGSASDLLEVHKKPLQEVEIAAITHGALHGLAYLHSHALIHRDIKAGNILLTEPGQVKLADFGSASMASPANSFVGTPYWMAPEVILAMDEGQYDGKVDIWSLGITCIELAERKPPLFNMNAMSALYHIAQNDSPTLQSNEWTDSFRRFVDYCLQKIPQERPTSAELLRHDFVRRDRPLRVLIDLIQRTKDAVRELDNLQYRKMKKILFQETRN
As to the kind of experiment: JIK Luciferase-Coupled Chemiluminescent Kinase assay (LCCA). As to conditions: 2 μM ATP, 10 μM MBP, 6 nM JIK, 2 hours; read-out: JIK inhibition IC50. The gist of the method:
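Baculovirus-expressed human KIAA 1361 kinase domain 2-318 at 6 nM, with 10 μM MBP and 2 μM ATP in Tris pH 7.5 with Mg/Mn, ran 2 h at ambient temperature. Remaining ATP was read by luciferase chemiluminescence. IC50 comes from a 10-concentration four-parameter fit.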

Assay [1] addresses T2, KIAA 1361 (baculovirus expressed human KIAA 1361 kinase domain 2-322) (Homo sapiens, UniProt Q7L7X3).
T2 construct: human KIAA 1361 kinase domain 2-322; made in house
T2 sequence (Q7L7X3 2-322): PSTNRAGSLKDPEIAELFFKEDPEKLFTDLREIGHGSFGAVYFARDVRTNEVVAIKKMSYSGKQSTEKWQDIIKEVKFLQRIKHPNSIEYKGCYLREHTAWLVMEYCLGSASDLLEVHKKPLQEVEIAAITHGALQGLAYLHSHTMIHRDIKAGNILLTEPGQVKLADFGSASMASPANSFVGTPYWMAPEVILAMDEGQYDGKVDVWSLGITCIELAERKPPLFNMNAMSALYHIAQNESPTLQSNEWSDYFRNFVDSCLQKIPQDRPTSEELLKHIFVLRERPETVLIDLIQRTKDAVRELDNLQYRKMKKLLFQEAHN
As to the kind of experiment: KIAA 1361 Luciferase-Coupled Chemiluminescent Kinase assay (LCCA). As to conditions: 2 μM ATP, 10 μM MBP, 12 nM KIAA 1361, 2 hours; read-out: KIAA1361 inhibition IC50. The gist of the method: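 KIAA 1361 kinase domain 2-322 (baculovirus, 12 nM) with 2 μM ATP and 10 μM MBP in Tris pH 7.5, MgCl2, MnCl2; 2 h, ambient. Remaining ATP read by luciferase chemiluminescence; 10 concentrations, IC50 by four-parameter fit.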

For the next assay, the target named is T3, TAO (Homo sapiens, UniProt Q9UL54).
T3 sequence (Q9UL54 1-1235): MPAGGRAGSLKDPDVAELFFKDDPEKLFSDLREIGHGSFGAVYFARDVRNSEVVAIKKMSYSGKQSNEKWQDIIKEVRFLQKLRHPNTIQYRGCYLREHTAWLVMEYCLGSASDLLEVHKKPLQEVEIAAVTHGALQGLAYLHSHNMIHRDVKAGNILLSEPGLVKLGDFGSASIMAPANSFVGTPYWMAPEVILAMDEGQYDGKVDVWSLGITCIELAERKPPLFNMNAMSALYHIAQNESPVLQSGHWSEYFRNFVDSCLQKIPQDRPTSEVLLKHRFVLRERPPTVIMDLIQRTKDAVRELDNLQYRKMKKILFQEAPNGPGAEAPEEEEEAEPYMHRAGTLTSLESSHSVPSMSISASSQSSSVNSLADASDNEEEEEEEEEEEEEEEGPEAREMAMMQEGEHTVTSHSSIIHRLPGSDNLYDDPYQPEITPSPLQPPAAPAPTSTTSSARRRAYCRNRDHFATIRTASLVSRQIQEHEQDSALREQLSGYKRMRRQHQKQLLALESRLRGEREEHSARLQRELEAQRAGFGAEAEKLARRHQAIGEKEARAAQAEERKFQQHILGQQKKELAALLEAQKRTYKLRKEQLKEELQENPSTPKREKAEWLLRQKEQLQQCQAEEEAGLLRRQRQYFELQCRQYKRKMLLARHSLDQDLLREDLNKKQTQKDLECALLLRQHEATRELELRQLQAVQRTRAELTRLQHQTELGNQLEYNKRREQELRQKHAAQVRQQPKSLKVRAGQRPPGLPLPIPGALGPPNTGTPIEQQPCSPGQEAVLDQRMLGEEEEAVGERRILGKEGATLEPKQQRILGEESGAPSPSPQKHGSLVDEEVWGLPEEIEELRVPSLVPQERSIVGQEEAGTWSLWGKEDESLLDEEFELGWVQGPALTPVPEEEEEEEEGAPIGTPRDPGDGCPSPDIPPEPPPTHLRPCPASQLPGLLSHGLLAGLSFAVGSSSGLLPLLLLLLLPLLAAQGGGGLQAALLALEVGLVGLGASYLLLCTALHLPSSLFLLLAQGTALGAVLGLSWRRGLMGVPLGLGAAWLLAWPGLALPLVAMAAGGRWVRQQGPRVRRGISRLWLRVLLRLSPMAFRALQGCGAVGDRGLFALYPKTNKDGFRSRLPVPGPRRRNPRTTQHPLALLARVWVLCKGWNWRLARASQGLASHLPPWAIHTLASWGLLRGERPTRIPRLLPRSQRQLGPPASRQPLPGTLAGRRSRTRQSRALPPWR
As to the kind of experiment: TAO Luciferase-Coupled Chemiluminescent Kinase assay (LCCA). The conditions noted are these: 2 μM ATP, 10 μM MBP, 12 nM TAO, 2 hours; read-out: TAO inhibition IC50.

This is an account of results in patent US20070208166A1, “Tao Kinase Modulators And Method Of Use” (Exelixis, Inc., priority 2003, published 2007).

SMILES strings stand for the structures. Bounds are passed on as bounds.

One may read the IC50 as the concentration needed to halve the response being measured.

For `O=C(CNC(=O)c1ccc(O)cc1)NC1CCCc2ccccc21` (stereo not drawn) [Entry 56, 4-hydroxy-N-[2-oxo-2-(1,2,3,4-tetrahydronaphthalen-1-ylamino)ethyl]benzamide], the results for the IC50 (at JIK; in assay [1]; at TAO) were 0.05 to 0.5 µM, 0.05 to 0.5 µM and 0.5 to 5 µM, respectively.

For `CCc1ccc(-c2ccc(C(=O)NCC(=O)N3Cc4ccccc4C3)cc2)cc1` [Entry 57, N-[2-(1,3-dihydro-2H-isoindol-2-yl)-2-oxoethyl]-4′-ethylbiphenyl-4-carboxamide], the IC50 (on JIK; in assay [1]; at TAO) was more than 5 µM in each case.

Turning to `O=C(CNC(=O)c1ccc(N2CCOCC2)cc1)NC1CCCc2ccccc21` (stereo not drawn) [Entry 58, 4-morpholin-4-yl-N-[2-oxo-2-(1,2,3,4-tetrahydronaphthalen-1-ylamino)ethyl]benzamide], the results for the IC50 (on JIK; in assay [1]; at TAO) were 0.5 to 5 µM, more than 5 µM and more than 5 µM, respectively.

As for `COc1cc2cc(C(=O)NCC(=O)NC3CCCc4ccccc43)[nH]c2cc1OC` (stereo not drawn) [Entry 59, 5,6-bis(methyloxy)-N-(2-oxo-2-(1,2,3,4-tetrahydronaphthalen-1-ylamino)ethyl]-1H-indole-2-carboxamide], the IC50 is 0.05 to 0.5 µM at JIK, 0.5 to 5 µM in assay [1] and 0.5 to 5 µM at TAO.

For `CCc1ccc(-c2ccc(C(=O)NCC(=O)N3CCc4ccccc4C3)cc2)cc1` [Entry 60, N-[2-(3,4-dihydroisoquinolin-2(1H)-yl)-2-oxoethyl]-4′-ethylbiphenyl-4-carboxamide], the IC50 (on JIK; in assay [1]; at TAO) was more than 5 µM in each case.

For the compound `CCc1ccc(-c2ccc(C(=O)NCC(=O)N[C@H]3CCCc4ccccc43)cc2)cc1` [Entry 61, 4′-ethyl-N-{2-oxo-2-[(1S)-1,2,3,4-tetrahydronaphthalen-1-ylamino]ethyl}biphenyl-4-carboxamide], the IC50 (at JIK; in assay [1]; at TAO) was less than 0.05 µM throughout.

For the compound `CCOCCCNC(=O)c1ccc(C(=O)NCC2COc3ccccc3O2)cc1N` (stereo not drawn) [Entry 62, 2-amino-N-˜4˜-(2,3-dihydro-1,4-benzodioxin-2-ylmethyl)-N˜1˜-[3-(ethyloxy)propyl]benzene-1,4-dicarboxamide], the IC50 (on JIK; in assay [1]; at TAO) was more than 5 µM in each case.

Turning to `COc1ccc2nc(NC(=O)CNC(=O)CC(NC(=O)c3ccccc3)c3ccccc3)sc2c1` (stereo not drawn) [Entry 63, N-{3-[(2-{[6-(methyloxy)-1,3-benzothiazol-2-yl]amino}-2-oxoethyl)amino]-3-oxo-1-phenylpropyl}benzamide], the IC50 (on JIK; in assay [1]; at TAO) was less than 0.05 µM in each case.

For the compound `CCc1ccc(-c2ccc(C(=O)NCC(=O)Nc3nc4ccc(OC)cc4s3)cc2)cc1` [Entry 64, 4′ethyl-N-(2-{[6-(methyloxy)-1,3-benzothiazol-2-yl]amino}-2-oxoethyl)biphenyl-4-carboxamide], the IC50 (on JIK; in assay [1]; at TAO) was more than 5 µM each time.

Consider `CCc1ccc(-c2ccc(C(=O)NCC(=O)NCC3COc4ccccc4O3)cc2)cc1` (stereo not drawn) [Entry 65, N-{2-[(2,3-dihydro-1,4-benzodioxin-2-ylmethyl)amino]-2-oxoethyl}-4′-ethylbiphenyl-4-carboxamide], for which the IC50 (at JIK; in assay [1]; on TAO) was more than 5 µM each time.

In the case of `CCc1ccc(-c2ccc(C(=O)N(C)CC(=O)NC3CCCc4ccccc43)cc2)cc1` (stereo not drawn) [Entry 66, 4′-ethyl-N-methyl-N-[2-oxo-2-(1,2,3,4-tetrahydronaphthalen-1-ylamino)ethyl]biphenyl-4-carboxamide], the 50% inhibitory concentration (IC50) (on JIK; in assay [1]; at TAO) was more than 5 µM in each case.

`CCc1ccc(-c2ccc(C(=O)NCC(=O)Nc3cccc4ccccc34)cc2)cc1` [Entry 67, 4′-ethyl-N-[2-(naphthalen-1-ylamino)-2-oxoethyl]biphenyl-4-carboxamide]: the IC50 at JIK was less than 0.05 µM; in assay [1], less than 0.05 µM; at TAO it was 0.05 to 0.5 µM.
